The values that follow come from ChEMBL document CHEMBL4251744, “Identification of Lycopodium Alkaloids Produced by an Ultraviolet-Irradiated Strain of Paraboeremia, an Endophytic Fungus from Lycopodium serratum var. longipetiolatum” (J Nat Prod, 2018).

Test [1] addresses T1, Acetylcholinesterase (Homo sapiens, UniProt P22303). The experiment in a line: Inhibition of AChE (unknown origin) using acetylthiocholine iodide as substrate by Ellman's method.
Test [2] concerns the target T1, Acetylcholinesterase. In words: Inhibition of AChE (unknown origin).

Where only a bound is given, the exact number is not on record here.

T1 sequence (P22303 whole entry): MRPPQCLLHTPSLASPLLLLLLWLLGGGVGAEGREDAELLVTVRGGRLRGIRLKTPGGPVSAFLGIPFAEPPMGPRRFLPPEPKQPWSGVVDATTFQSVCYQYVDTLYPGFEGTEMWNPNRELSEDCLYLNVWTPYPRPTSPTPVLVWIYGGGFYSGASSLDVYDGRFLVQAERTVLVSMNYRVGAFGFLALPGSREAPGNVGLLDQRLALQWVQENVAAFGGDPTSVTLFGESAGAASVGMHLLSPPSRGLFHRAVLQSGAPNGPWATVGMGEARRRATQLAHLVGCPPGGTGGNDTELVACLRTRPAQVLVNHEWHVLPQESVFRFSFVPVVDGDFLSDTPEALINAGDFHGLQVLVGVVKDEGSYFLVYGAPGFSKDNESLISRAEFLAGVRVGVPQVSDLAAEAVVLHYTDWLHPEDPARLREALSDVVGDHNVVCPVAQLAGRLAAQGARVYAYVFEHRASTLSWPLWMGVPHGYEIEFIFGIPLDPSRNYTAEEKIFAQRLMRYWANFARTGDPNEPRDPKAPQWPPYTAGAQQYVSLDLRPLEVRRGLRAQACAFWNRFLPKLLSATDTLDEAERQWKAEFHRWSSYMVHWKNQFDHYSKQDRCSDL

As for `C[C@@H]1C[C@H]2CC(=O)[C@H]3CCC[N+]4([O-])CCC[C@@H]2[C@]34C1` (stereo partly drawn), the IC50 on Acetylcholinesterase [1] is > 100 µM.
For the compound `C[C@@H]1C[C@H]2CC(=O)[C@H]3CCC[N+]4([O-])CCC[C@]2(O)[C@]34C1` (stereo partly drawn), the half-inhibitory concentration (IC50) on Acetylcholinesterase [2] came out at 0.59 µM.
For the compound `C[C@@H]1C[C@H]2CC(=O)[C@H]3CCCN4CCC[C@@H]2[C@]34C1`, the IC50 against Acetylcholinesterase [1] is > 100 µM.

As usually defined, the IC50 is the concentration that inhibits the measured activity by half.
